Test results: patent US20240058403A1, “YEAST PARTICLES FOR DELIVERY OF WATER-ACTIVATED SELF-EMULSIFYING CANNABINOID FORMULATIONS” (UNIVERSITY OF MASSACHUSETTS, priority 2022, published 2024)
“Also recorded” adds a separate entry of the source. Like-named read-outs stand apart in the source and are kept apart here.

What was measured:
[1] = Fast release of cannabinoids from GLPs embedded in adjuvant, simulated saliva with or without tissue, 1 minute; type: physicochemical; details: for THC released in 1 minute: 37° C.; for cannabinoid release from GLP in 1 minute: cannabinoid loaded alone, no release agent
Experimental: Composition of simulated saliva was 0.72 g/L potassium chloride, 0.22 g/L calcium chloride dihydrate, 0.68 g/L potassium phosphate monobasic, 0.866 g/L sodium phosphate dibasic, 1.5 g/L potassium bicarbonate, 0.06 g/L potassium thiocyanate, and 0.03 g/L citric acid. Samples of dry GLP-THC (4 mg) were resuspended in 1 mL of (A) water, (B) dry glycerin or (C) SEDDS mixture (3.3 mg/mL lecithin in 3% MCT in glycerin). The GLP THC suspensions were diluted with simulated saliva (25% simulated saliva+75% GLP THC in solvent mixture) with and without the addition of a sample of 75-100 mg fat tissue. The samples were incubated for 1 minute at 37° C., and then the fractions were separated to quantify THC in the GLP pellet (THC not released), THC in supernatant (released) and THC in the tissue (released from GLP and absorbed by the tissue). The THC absorbed in the tissue was extracted in 100% methanol and the THC remaining in GLPs was extracted in 80% ethanol-20% water. The THC in all fractions was quantified by HPLC.
GLPs were loaded with a THC:GLP weight ratio of 1:1 and embedded in different solvents. THC release was achieved and quantified as described before (FIG. 9).
GLPs were loaded with a THC and undecanoic acid as a release agent (RA). Loaded GLPs were embedded in adjuvants (water, glycerin or SEDDS mixture). THC release was achieved and quantified as described before (FIG. 9).
GLPs were loaded with a CBD, CBN or CBG and octanoic acid as a RA. Loaded GLPs were embedded in adjuvant water or SEDDS mixture. Cannabinoid release was achieved and quantified as described before for THC (FIG. 9).

[2] = Micelle size of CBD-SA-RA emulsions; type: physicochemical
[3] = Stability of CBD-SA-RA o/w emulsions; type: physicochemical; details: for Stable CBD o/w emulsion: 1 mg/mL in water, room temperature 30 minutes; for Stable CBD-OA-RA o/w emulsion: 1 mg/mL in water by sonication, room temperature for 30 minutes, precipitate/phase partitioning = unstable
S. cerevisiae = details: by enhancing potassium leakage and disrupting membrane fluidity; cited from earlier work
H. pylori = details: cited from earlier work
C. albicans = details: by enhancing potassium leakage and disrupting membrane fluidity; cited from earlier work
[4] = hydrophilic-lipophilic balance; cited from earlier work
[5] = Maximum solubility of surfactants in OA or UDA; type: physicochemical
[6] = Sustained THC release from GLP-THC-UDA with or without RA in simulated saliva + tissue; type: physicochemical; details: simulated saliva + tissue at 37° C.; 1 to 24 h
Experimental: GLPs were loaded at a weight ratio of CBD:OA:GLP of 2:1:1. Dry GLP-CBD (5 mg) were resuspended in 1 mL of simulated saliva, a 75-100 mg piece of simulated tissue was added to the sample and incubated at 37° C. with constant mixing. Aliquots (200 μL) were collected at 1, 3, 6 and 24 h and the samples were centrifuged to separate supernatant (released CBD fraction) and GLP pellet. Released CBD was quantified in the supernatants by HPLC as described before.
The effect of addition of RAs to THC with UDA as SA was tested. Release assays were performed as described as before.

[7] = Physical state of THC-UDA-RA mixture at room temperature; type: physicochemical
Experimental: Various RAs were tested as described before for their ability to stabilize micelles formed when GLPs encapsulate THC as the payload and UDA as the SA.

[8] = Sustained CBD release from GLPs with sequestering/release agents in simulated saliva; type: physicochemical
Experimental: GLPs were loaded at a weight ratio of CBD:OA:GLP of 2:1:1. […] Aliquots (200 μL) were collected at 1, 3, 6 and 24 h and the samples were centrifuged to separate supernatant (released CBD fraction) and GLP pellet. Released CBD was quantified in the supernatants by HPLC as described before.
The effect of addition of RAs to CBD with OA as SA was tested.
GLPs were loaded with CBD, OA and various RAs. Release assays were performed by the procedure described as before.
[…] Aliquots (200 μL) were collected at 1, 3, 6 and 24 h and the samples were centrifuged to separate supernatant (released CBD fraction) and GLP pellet. Released CBD was quantified in the supernatants by HPLC as described before.

[9] = Release of oleamide from GLPs in simulated saliva with or without tissue; type: physicochemical
Experimental: The release of oleamide encapsulated in GLPs using octanoic acid or undecanoic acid as loading solvent or as leave-in solvent was tested. To perform the release assay, the GLP-oleamide suspensions were diluted with simulated saliva (25% simulated saliva+75% GLP in solvent mixture) with and without the addition of a sample of 75-100 mg fat tissue. […], and then the fractions were separated to quantify oleamide in the GLP pellet (unreleased oleamide), oleamide in the supernatant (released) and oleamide in the tissue (released from GLP and absorbed by the tissue). The oleamide absorbed in the tissue was extracted in 100% methanol and the oleamide remaining in GLPs was extracted in 80% ethanol-20% water. The oleamide in all fractions was quantified by HPLC. […] Oleamide was released at a low efficiency (2%) from GLPs with simulated saliva and higher efficiency (34-40%) with simulated saliva and tissue. The addition of UA as the leave-in solvent increased OA release from 34% to 46% in 5 minutes and from 40% to 58% with simulated saliva and tissue

[10] = CBD-SA-RA emulsion, RA TRITON X100 20 % w/w

## CCCCCc1cc(O)c2c(c1)OC(C)(C)[C@@H]1CCC(C)=C[C@@H]21 [THC, tetrahydrocannabinol]
[1]; GLPs (THC:GLP 1:1) embedded in SEDDS mixture (lecithin/MCT/glycerin), simulated saliva with tissue
  THC released in 1 minute: up to 53%
[1]; GLPs (THC:GLP 1:1) embedded in SEDDS mixture (lecithin/MCT/glycerin), simulated saliva without tissue
  THC released in 1 minute: Up to 30%
[1]; GLPs (THC:GLP 1:1) embedded in glycerin, simulated saliva containing tissue
  THC released in 1 minute: Up to 30%

## CCCCCCCC(=O)O [Octanoic acid]
[2]; without RA
  CBD-SA-RA micelle size (nm): 379 nm
[3]; CBD-SA emulsion without RA
  Stable CBD o/w emulsion: No
[3]; [10]
  Stable CBD o/w emulsion: Yes

## CC(C)=CCC/C(C)=C/CO [Geraniol]
S. cerevisiae
  growth inhibition: inhibit the growth
H. pylori
  concentration that inhibited in vitro growth: 2 mg/L
C. albicans
  growth inhibition: inhibit the growth

## TWEEN 80
[4]
  HLB: 15
[3]
  Stable CBD-OA-RA o/w emulsion: No
[5]
  Maximum solubility in OA: 25% w/w

## CCCCCc1cc(O)c2c(c1)OC(C)(C)c1ccc(C)cc1-2 [CBN, cannabinol]
[1]
  cannabinoid release from GLP in 1 minute: do not release efficiently

## TRITON ™ X-100
[6]
  effect of RA on sustained THC release from GLP-THC-UDA: did not improve sustained release from 1 to 6 h; also recorded: yielded high THC release at the 24 hour time point
[4]
  HLB: 13.5
[7]
  Physical State of THC-UDA-RA mixture at room temperature: mixture of oil and solid UDA
[7]; listed as TRITONTM X-100
  Physical State of THC-UDA-RA mixture at room temperature: Solid
[8]; GLP-CBD-OA-RA, simulated saliva with tissue
  fold increase of CBD release compared to GLP-CBD-OA control sample: 1.7-2.0 fold
[8]; simulated saliva with tissue, 1 to 6 hours
  effect of RA on sustained CBD release from GLP-CBD-OA: improvement of sustained release from 1 to 6 hours
[3]
  Stable CBD-OA-RA o/w emulsion: Yes
[3]; listed as TRITON™ X-100
  Stable CBD-OA-RA o/w emulsion: form stable micelles
[5]
  Maximum solubility in OA: 20% w/w
  Maximum solubility in UDA: 37.5% w/w

## CCCCCc1cc(O)c(C/C=C(\C)CCC=C(C)C)c(O)c1 [CBG, cannabigerol]
[1]
  cannabinoid release from GLP in 1 minute: do not release efficiently

## C=CC(C)(O)CCC=C(C)CCC=C(C)C (stereo not shown) [Nerolidol]
[2]; RA TRITON X100 20 % w/w
  CBD-SA-RA micelle size (nm): 661 nm
[2]; without RA
  CBD-SA-RA micelle size (nm): 1260 nm
[8]; SA plus TRITON X-100 as RA, simulated saliva + tissue at 37° C.
  total CBD release at 24 hours: 37%
[8]; simulated saliva + tissue at 37° C.
  course of CBD release with SA and TRITON X-100 as RA: did not lead to CBD release in the first 6 hours
[3]; CBD-SA emulsion without RA
  Stable CBD o/w emulsion: No
[3]; [10]
  Stable CBD o/w emulsion: Yes

## CCCCCCCC/C=C\CCCCCCCC(N)=O [Oleamide, oleamide]
[9]; simulated saliva (no tissue), 1 hour
  % oleamide Released: 2%
[9]; simulated saliva + tissue, 5 minutes
  % oleamide Released: 34%
[9]; simulated saliva + tissue, 1 hour
  % oleamide Released: 40%
[9]; simulated saliva and tissue, 5 minutes to 1 hour
  oleamide release efficiency: 34-40%

## TWEEN 20
[4]
  HLB: 16.7
[3]
  Stable CBD-OA-RA o/w emulsion: No
[5]
  Maximum solubility in OA: 20% w/w

## C=C(C)[C@@H]1CCC(C)=C[C@H]1c1c(O)cc(CCCCC)cc1O [CBD, cannabidiol, reference compound]
[8]; GLPs CBD:OA:GLP 2:1:1, OA as SA, simulated saliva
  time after which CBD release plateaued: 6 h
[8]; GLPs CBD:OA:GLP 2:1:1, OA as SA, simulated saliva (without simulated tissue), 37° C.
  CBD released after 24 h incubation: ≤ 25%
[1]
  cannabinoid release from GLP in 1 minute: do not release efficiently
